Source: patent USRE42013E1, “Macrocyclic modulators of the ghrelin receptor” (Tranzyme Pharma Inc., priority 2003, dated 2010)
Where two headings read alike, the source gives them in different places.

Target: T1, human growth hormone secretagogue receptor (hGHS-R1a) (Homo sapiens, UniProt Q92847)
T1 construct: purchased PerkinElmer BioSignal #RBHGHSM, lot#1887; host or cells: HEK-293, stably transfected
Assay: Competitive radioligand binding assay (ghrelin receptor), [125I]-ghrelin displacement
Description: The competitive binding assay at the human growth hormone secretagogue receptor (hGHS-R1a) was carried out analogously to assays described in the literature.
Multiscreen Harvest plates-GF/C (Millipore, #MAHFC1H60) • 4. […] Bottom seal (Millipore, #MATAH0P00) • 7. […] Binding Buffer: 25 mM Hepes (pH 7.4), 1 mM CaCl2, 5 mM MgCl2, 2.5 mM EDTA, 0.4% BSA Assay Volumes
Competition experiments were performed in a 300 μl filtration assay format. • 1. 220 μL of membranes diluted in binding buffer • 2. 40 μL of compound diluted in binding buffer • 3. […] Compound Handling
Compounds were provided frozen on dry ice at a stock concentration of 10 mM diluted in 100% DMSO and stored at −80° C. until the day of testing. On the test day, compounds were allowed to thaw at rt O/N and then diluted in assay buffer according to the desired test concentrations.
Plates were sealed with TopSeal-A, vortexed gently and incubated at rt for 30 min. The reaction was arrested by filtering samples through Multiscreen Harvest plates (pre-soaked in 0.5% polyethyleneimine) using a Tomtec Harvester, washed 9 times with 500 μL of cold 50 mM Tris-HCl (pH 7.4, 4° C.), and then plates were air-dried in a fumehood for 30 min. A bottom seal was applied to the plates prior to the addition of 25 μL of MicroScint-0 to each well. […] Results were expressed as counts per minute (cpm).
Data were analyzed by GraphPad Prism (GraphPad Software, San Diego, Calif.) using a variable slope non-linear regression analysis.
Compound structures for Tables 3A, 3B and 3D are presented with the various groups as defined for the general structure of formula I. For Tables 3B and 3D, in all entries, m, n and p are 0; X, Z1 and Z2 are each NH. For Table 3B, R1 is H for all entries. The tethers (T) are illustrated with the bonding to X and Z2 as indicated. The compounds themselves are shown for Table 3C.
• 1. […] Key Aspects of Method • 1. […] Results

[1] = Table 3B, binding at human ghrelin receptor, [125I]-ghrelin displacement, read-out: Ki
[2] = binding activity at the human ghrelin receptor, [125I]-ghrelin displacement, hGHS-R1a/HEK-293 membranes, read-out: Ki
[3] = Table 3E, binding activity at the human ghrelin receptor, class symbols, read-out: Ki
[4] = Table 4, binding at human ghrelin receptor, TFA salts unless otherwise noted, read-out: Ki
[5] = Table 3D, binding at human ghrelin receptor, [125I]-ghrelin displacement, read-out: Ki
[6] = [125I]-ghrelin displacement, hGHS-R1a HEK-293 membranes, read-out: Binding Activity at the Human Ghrelin Receptor (Ki)

T1 sequence (Q92847 whole entry): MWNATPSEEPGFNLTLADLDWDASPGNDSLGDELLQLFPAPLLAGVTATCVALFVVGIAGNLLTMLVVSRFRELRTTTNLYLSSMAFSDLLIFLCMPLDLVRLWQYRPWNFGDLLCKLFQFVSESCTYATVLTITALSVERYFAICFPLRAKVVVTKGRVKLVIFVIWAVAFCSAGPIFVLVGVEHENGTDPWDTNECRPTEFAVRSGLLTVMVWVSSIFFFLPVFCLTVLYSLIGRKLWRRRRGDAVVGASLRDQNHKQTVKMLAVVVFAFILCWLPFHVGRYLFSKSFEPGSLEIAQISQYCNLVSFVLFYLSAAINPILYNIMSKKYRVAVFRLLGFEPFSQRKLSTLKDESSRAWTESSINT

Row | Structure (SMILES) | Ki [1] [nM] | Ki [2] [nM] | further results
1 | CCC(C)C1NCCCc2ccccc2CCCCNC(=O)C(Cc2cccc(Cl)c2)NC(=O)C2(CCCC2)NC1=O (stereo not shown) [compound 371] | < 100 | – | –
2 | C[C@@H]1C(=O)N[C@H](Cc2ccc(O)c(C(C)(C)C)c2)C(=O)NCCCc2ccccc2OCCN[C@@H](C2CC2)C(=O)N1C [compound 311] | < 100 | – | –
3 | CC1C(=O)NC(Cc2ccc(F)cc2)C(=O)NCCCc2cc(C(F)(F)F)ccc2OCCNC(C2CC2)C(=O)N1C (stereo not shown) [compound 356] | 100 to 10000 | – | –
4 | CCC(C)C1NCCCCc2ccccc2CCNC(=O)C(Cc2ccccc2)NC(=O)C(C)N(C)C1=O (stereo not shown) [compound 180] | – | 100 to 10000 | –
5 | CC(C)C[C@@H]1NCCOc2ccccc2CCCNC(=O)[C@H](Cc2ccccc2)NC(=O)[C@@H]2CCCN2C1=O [compound 222] | – | – | Ki [3]: 1000 to 10000 nM
6 | CCC(C)C1NCCCc2ccccc2CCNC(=O)C(Cc2ccccc2)NC(=O)C(C)N(C)C1=O (stereo not shown) [compound 179] | – | 100 to 10000 | –
7 | COc1ccc(CC2NC(=O)C(C)N(C)C(=O)C(C3CC3)NCCOc3ccccc3CCCNC2=O)cc1OC (stereo not shown) [compound 323] | 100 to 10000 | – | –
8 | CCC(C)C1NCCOCC=CCNC(=O)C(Cc2ccccc2)NC(=O)C(C)N(C)C1=O (stereo not shown) [compound 185] | – | 100 to 10000 | –
9 | CCC(C)C1NCCOc2ccccc2CCCNC(=O)C(Cc2ccccc2)NC(=O)C(C(C)CC)N(C)C1=O (single isomer, unassigned) [150b] | – | > 10000 | –
10 | CCC(C)C1NCCOc2ccccc2CCCNC(=O)C(Cc2cccs2)NC(=O)C(C)N(C)C1=O (stereo not shown) [compound 34] | – | 10 to 100 | Ki [4]: 10 to 100 nM
11 | CC1CNC(C2CC2)C(=O)N(C)C(C)C(=O)NC(Cc2ccccc2)C(=O)NCCCc2ccc(F)cc2O1 (stereo not shown) [compound 435] | – | – | Ki [5]: 10 to 100 nM
12 | CCC(C)C1NCCCCCCCNC(=O)C(Cc2cccc(Cl)c2)NC(=O)C2(CCCC2)NC1=O (stereo not shown) [compound 366] | 100 to 10000 | – | –
13 | CC1C(=O)NC(Cc2ccsc2)C(=O)NCCCc2ccccc2OCCNC(C2CC2)C(=O)N1C (stereo not shown) [compound 310] | < 100 | – | –
14 | CC1C(=O)NC(Cc2ccc(F)cc2)C(=O)NCC2CC2c2ccccc2OCCNC(C2CC2)C(=O)N1C (stereo not shown) [compound 379] | < 100 | – | –
15 | CCCC1NCC2CCC(CNC(=O)C(Cc3ccccc3)NC(=O)CN(C)C1=O)O2 (stereo not shown) [compound 78] | – | > 10000 | –
16 | CCC(C)C1NCCCc2c(c(=O)n(C)c(=O)n2C)CCCNC(=O)C(Cc2ccccc2)NC(=O)C(C)N(C)C1=O (stereo not shown) [compound 206] | – | – | Ki [6]: > 10000 nM

Row | Structure (SMILES) | Ki [1] [nM] | Ki [2] [nM] | further results
17 | CC(C)CC1NCC(C)Oc2ccccc2CCCNC(=O)C(Cc2cccc(Cl)c2)NC(=O)C2(CCCC2)NC1=O (stereo not shown) [compound 438] | – | – | Ki [5]: 1000 to 10000 nM
18 | CCC(C)C1NCCCc2ccccc2CCCNC(=O)C(Cc2ccccc2)NC(=O)C(C)N(C)C1=O (stereo not shown) [compound 190] | – | – | Ki [6]: 10 to 100 nM
19 | CC1C(=O)NC(Cc2c[nH]c3ccccc23)C(=O)NCCCc2ccccc2OCCNC(C2CC2)C(=O)N1C (stereo not shown) [compound 324] | < 100 | – | –
20 | CCC(C)C1NCCOc2ccccc2CCNC(=O)C(Cc2ccccc2)NC(=O)C(C)N(C)C1=O (stereo not shown) [compound 178] | – | 100 to 10000 | Ki [4]: 100 to 1000 nM
21 | CCCC1NCCOc2ccccc2CCCNC(=O)C(Cc2ccccc2)NC(=O)C(Cc2ccccc2)NC1=O (stereo not shown) [compound 65] | – | 1000 to 10000 | –
22 | CCC(C)C1NCCCCCNC(=O)C(Cc2cccc(Cl)c2)NC(=O)C2(CCCC2)NC1=O (stereo not shown) [compound 447] | – | – | Ki [5]: 1000 to 10000 nM
23 | CC1CNC(=O)C(Cc2ccc(F)cc2)NC(=O)C(C)N(C)C(=O)C(C2CC2)NCCOc2ccccc2C1 (stereo not shown) [compound 376] | 100 to 10000 | – | –
24 | CCC(C)C1NCCOc2ccccc2CCCNC(=O)C(Cc2cscn2)NC(=O)C(C)N(C)C1=O (stereo not shown) [compound 33] | – | 100 to 10000 | –
25 | CC1CCNC(=O)C(Cc2ccc(F)cc2)NC(=O)C(C)N(C)C(=O)C(C2CC2)NCCOc2ccccc21 (stereo not shown) [compound 375] | 100 to 10000 | – | –
26 | CCC(C)C1NCCOc2ccc(C(=N)N)cc2CCCNC(=O)C(Cc2ccccc2)NC(=O)C(C)N(C)C1=O (stereo not shown) [compound 196] | – | – | Ki [6]: > 10000 nM
27 | CCC(C)C1NCCc2ccccc2C=CCCNC(=O)C(Cc2ccccc2)NC(=O)C(C)N(C)C1=O (stereo not shown) [compound 188] | – | > 1000 | –
28 | CC1C(=O)NC(Cc2ccc(F)cc2)C(=O)NCCC=CCOCCNC(C2CC2)C(=O)N1C (stereo not shown) [compound 307] | 100 to 10000 | – | –
29 | CC(C)C[C@@H]1NCCOc2ccccc2CCCNC(=O)[C@H](Cc2ccccc2)NC(=O)[C@H]2CCCN2C1=O [compound 223] | – | – | Ki [3]: 1000 to 10000 nM
30 | CCC(C)C1NCCCCC=CCCNC(=O)C(Cc2ccccc2)NC(=O)C(C)N(C)C1=O (stereo not shown) [compound 183] | – | > 10000 | –
31 | CCC1NCCOc2ccccc2CCCNC(=O)C(Cc2ccccc2)NC(=O)C(C)N(C)C1=O (stereo not shown) [compound 117] | – | 10 to 100 | –
32 | CCC[C@@H]1NCCOc2ccccc2CCCNC(=O)[C@@H](Cc2ccccc2)NC(=O)CN(CC)C1=O [compound 5] | – | 100 to 10000 | –

Further lines, with some results ahead:

Row | Ki [1] [nM] | Ki [2] [nM] | Structure (SMILES) | further results
33 | – | 10 to 100 | CCCC1NCCOc2ccccc2C=CCNC(=O)C(Cc2ccccc2)NC(=O)C2(CCCC2)NC1=O (stereo not shown) [compound 137] | –
34 | – | > 10000 | CC(C)CC1NCCOc2ccccc2C=CCNC(=O)C(Cc2cscn2)NC(=O)C2(CCCC2)NC1=O (stereo not shown) [compound 163] | –
35 | < 100 | – | CC1C(=O)NC(Cc2ccc(F)cc2)C(=O)NCC=Cc2ccccc2OCCNC(C2CC2)C(=O)N1C (stereo not shown) [compound 400] | –
36 | 100 to 10000 | – | CCC(C)C1NCCOCCOCCNC(=O)C(Cc2cccc(Cl)c2)NC(=O)C2(CCCC2)NC1=O (stereo not shown) [compound 393] | –
37 | 100 to 10000 | – | CCC(C)C1NCCOc2ccc(Cl)cc2CCCNC(=O)C(Cc2cccc(Cl)c2)NC(=O)C2(CCCC2)NC1=O (stereo not shown) [compound 384] | –
38 | 100 to 10000 | – | CCC(C)C1NCCOc2cc(F)ccc2CCCNC(=O)C(Cc2cccc(Cl)c2)NC(=O)C2(CCCC2)NC1=O (stereo not shown) [compound 383] | –
39 | – | 100 to 10000 | CCCCC1NC(=O)C(CCCC)NC(=O)C(C(C)C)NCCOc2ccccc2C=CCNC1=O (stereo not shown) [compound 12] | –
40 | 100 to 10000 | – | CCC(C)C1NCCOc2ccccc2C(C)CCNC(=O)C(Cc2cccc(Cl)c2)NC(=O)C2(CCCC2)NC1=O (stereo not shown) [compound 386] | –
41 | 100 to 10000 | – | CCC(C)C1NCc2ccccc2CCCCCNC(=O)C(Cc2cccc(Cl)c2)NC(=O)C2(CCCC2)NC1=O (stereo not shown) [compound 362] | –
42 | 100 to 10000 | – | CCC(C)C1NCCOc2ccccc2C=CCNC(=O)C(Cc2ccsc2)NC(=O)C2(CCCC2)NC1=O (stereo not shown) [compound 333] | –
43 | < 100 | – | CCC(C)C1NCCOc2ccccc2CC(C)CNC(=O)C(Cc2cccc(Cl)c2)NC(=O)C2(CCCC2)NC1=O (stereo not shown) [compound 392] | –
44 | – | > 1000 | CC(C)CC1NCCOc2ccccc2C=CCNC(=O)C(C(c2ccccc2)c2ccccc2)NC(=O)C2(CCCC2)NC1=O (stereo not shown) [compound 158] | –
45 | – | > 10000 | CCCC1NC(=O)C2(CCCC2)NC(=O)C(CC(C)C)NCCOc2ccccc2C=CCNC1=O (stereo not shown) [compound 48] | –
46 | – | 100 to 10000 | CC(C)C1NCCOc2ccccc2C=CCNC(=O)C(Cc2ccccc2)NC(=O)C2(Cc3ccccc3C2)NC1=O (stereo not shown) [compound 142] | –
47 | 100 to 10000 | – | CCC(C)C1NCCOCCCCCNC(=O)C(Cc2cccc(Cl)c2)NC(=O)C2(CCCC2)NC1=O (stereo not shown) [compound 370] | –
48 | – | 100 to 10000 | CCCC1NCCOc2ccccc2CCCNC(=O)C(Cc2ccccc2)NC(=O)C(C)(C)NC1=O (stereo not shown) [compound 66] | –
49 | 100 to 10000 | – | CCC(C)C1NCCCNCCNC(=O)C(Cc2cccc(Cl)c2)NC(=O)C2(CCCC2)NC1=O (stereo not shown) [compound 390] | –
50 | 100 to 10000 | – | N#Cc1ccccc1CC1NCCOc2ccccc2C=CCNC(=O)C(Cc2cccc(Cl)c2)NC(=O)C2(CCCC2)NC1=O (stereo not shown) [compound 342] | –
51 | – | 100 to 10000 | CC(C)CC1NCCOc2ccccc2C=CCNC(=O)C2(CCCC2)NC(=O)C2(CCCC2)NC1=O (stereo not shown) [compound 168] | –
52 | 100 to 10000 | – | CCC(C)C1NCCOc2ccccc2C(C)(C)CCNC(=O)C(Cc2cccc(Cl)c2)NC(=O)C2(CCCC2)NC1=O (stereo not shown) [compound 359] | –
53 | – | 1000 to 10000 | CCOC(=O)CCC1NC(=O)C2(CCCC2)NC(=O)C(CC(C)C)NCCOc2ccccc2C=CCNC1=O (stereo not shown) [compound 116] | –
54 | 100 to 10000 | – | COCC1NCCOc2ccccc2C=CCNC(=O)C(Cc2cccc(Cl)c2)NC(=O)C2(CCCC2)NC1=O (stereo not shown) [compound 344] | –
55 | < 100 | – | O=C1NC2(CCCC2)C(=O)NC(Cc2cccc(Cl)c2)C(=O)NCC=Cc2ccccc2OCCNC1Cc1ccc(O)cc1 (stereo not shown) [compound 301] | –
56 | 100 to 10000 | – | CCC(C)C1NCCCCCCNC(=O)C(Cc2cccc(Cl)c2)NC(=O)C2(CCCC2)NC1=O (stereo not shown) [compound 365] | –
57 | – | 100 to 10000 | O=C1NC2(CCCC2)C(=O)NC(Cc2ccccc2)C(=O)NCC=Cc2ccccc2OCCNC1Cc1ccc2ccccc2c1 (stereo not shown) [compound 131] | –
58 | – | 1000 to 10000 | CC(C)CC1NCc2ccccc2Sc2ccccc2CNC(=O)C(Cc2ccccc2)NC(=O)C2(CCCC2)NC1=O (stereo not shown) [compound 108] | –
59 | – | > 10000 | CC(C)CC1NCCOCCNC(=O)C(Cc2ccccc2)NC(=O)C2(CCCC2)NC1=O (stereo not shown) [compound 44] | –
